What was measured:
[1] = human
[2] = human; remark: listed apart in the source
[3] = human; remark: listed apart in the source
[4] = human, serum, 4383 h
[5] = human; remark: listed apart in the source
[6] = human; remark: listed apart in the source
[7] = Comments (NB not yet translated). [column 'COMMENTAIRES' in source]; settings: human
[8] = human; remark: listed apart in the source
[9] = human; remark: listed apart in the source
[10] = Presence of at least one case with successful reintroduction. [column 'REINT' in source]; settings: human
[11] = human, serum
[12] = Highest frequency of moderate liver toxicity observed during clinical trials, expressed as a percentage. [column '% BIOL' in source]; settings: human
[13] = Proposed mechanism(s) of liver damage. [column 'MEC' in source]; settings: human
[14] = Highest frequency of acute liver toxicity observed during clinical trials, expressed as a percentage. [column '% AIGUE' in source]; settings: human
[15] = human; remark: listed apart in the source
[16] = human, serum; remark: listed apart in the source
[17] = human; remark: listed apart in the source
[18] = Times to onset, minimal and maximal, observed in the indexed observations. [column 'DELAI' in source]; settings: human
[19] = human; remark: listed apart in the source
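Wherever Hepatotoxicity (association with vascular disease) is given: count of indexed literature references reporting vascular liver injury in humans, e.g. peliosis hepatitis, hepatic veno-occlusive disease or Budd-Chiari syndrome.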
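Wherever Hepatotoxicity (benign tumour) is given: value is a count of indexed literature references citing a benign tumour confirmed by histopathology.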
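Wherever Hepatotoxicity (choleostasis) is given: human cholestatic liver injury, shown by histopathology or by peak ALT or AST elevation over alkaline phosphatase ratio below 2, value counts indexed literature reports.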
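Wherever Hepatotoxicity (chronic liver disease) is given: chronic liver injury confirmed by histopathology or persistently raised serum aminotransferase activity beyond 6 months, value given as the count of indexed literature references.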
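Wherever Hepatotoxicity (cirrhosis) is given: value is a count of indexed literature references reporting cirrhosis confirmed by histopathology.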
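Wherever Hepatotoxicity (cytolytic) is given: human cytolytic liver injury, shown by histopathology or by a ratio above 5 of peak ALT or AST elevation to alkaline phosphatase elevation, value counts indexed references.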
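Wherever Hepatotoxicity (granulomatous hepatitis) is given: value is a count of indexed literature references reporting granulomatous liver disease confirmed by histopathology.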
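Wherever Hepatotoxicity (malignant tumour) is given: malignant tumour confirmed by histopathology, value gives the count of indexed literature references reporting it.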
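Wherever Hepatotoxicity (severe hepatitis) is given: human clinical data: severe hepatitis, meaning potentially life-threatening liver failure or clinically observed cases, the value counts how many indexed literature references report it.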
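Wherever Hepatotoxicity (steatosis) is given: steatosis confirmed by histopathology, value is the count of indexed references.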

In the case of FC(F)OC(F)(F)C(F)Cl (stereo not given), the “Hepatotoxicity (granulomatous hepatitis)” value [1] was 1, the “Hepatotoxicity (steatosis)” value [2] was 2 and the “Hepatotoxicity (cirrhosis)” value [3] was 0. For the same molecule, the “Hepatotoxicity (chronic liver disease)” value [4] was 0, the “Hepatotoxicity (association with vascular disease)” value [5] was 0 and the “Hepatotoxicity (malignant tumour)” value [6] was 0. The “Hepatotoxicity (comment)” value [7] was “RC/HALOTHANE AC_ANTI-TFA”, the “Hepatotoxicity (choleostasis)” value [8] was 7 and the “Hepatotoxicity (severe hepatitis)” value [9] was 10. For the same molecule, the “Hepatotoxicity (successful reintroduction)” value [10] was “yes”, the “Hepatotoxicity (acute)” value [11] was 21 and the “Hepatotoxicity (moderate)” value [12] was 58%. The “Hepatotoxicity (mechanism)” value [13] was “Allergic, Reactive metabolite”, the “Hepatotoxicity (acute)” value [14] was 0.7% and the “Hepatotoxicity (benign tumour)” value [15] was 0. For the same molecule, the “Hepatotoxicity (moderate)” value [16] was 15, the “Hepatotoxicity (cytolytic)” value [17] was 18 and the “Hepatotoxicity (time to onset)” value [18] was 2 hours - 19 days. For the same molecule, the “Hepatotoxicity (animal toxicity known)” value [19] was “yes”.

With O=C(O)COc1ccc(C(=O)c2cccs2)c(Cl)c1Cl the “Hepatotoxicity (granulomatous hepatitis)” value [1] was 0, the “Hepatotoxicity (steatosis)” value [2] was 1 and the “Hepatotoxicity (cirrhosis)” value [3] was 4. For the same molecule, the “Hepatotoxicity (chronic liver disease)” value [4] was 7, the “Hepatotoxicity (association with vascular disease)” value [5] was 0 and the “Hepatotoxicity (malignant tumour)” value [6] was 0. For the same molecule, the “Hepatotoxicity (comment)” value [7] was “AC_ANTI-MFR2”, the “Hepatotoxicity (choleostasis)” value [8] was 8 and the “Hepatotoxicity (severe hepatitis)” value ([9]; Liver) was 9. For the same molecule, the “Hepatotoxicity (successful reintroduction)” value [10] was “yes”, the “Hepatotoxicity (acute)” value [11] was 18 and the “Hepatotoxicity (moderate)” value ([12]; Liver) was 7%. The “Hepatotoxicity (mechanism)” value [13] was “Allergic, Reactive metabolite”, the “Hepatotoxicity (acute)” value ([14]; Liver) was 0% and the “Hepatotoxicity (benign tumour)” value [15] was 0. For the same molecule, the “Hepatotoxicity (moderate)” value [16] was 9, the “Hepatotoxicity (cytolytic)” value [17] was 18 and the “Hepatotoxicity (time to onset)” value [18] was 2 weeks - 1 year. For the same molecule, the “Hepatotoxicity (animal toxicity known)” value [19] was “yes”.

In the case of CCCCc1oc2ccccc2c1C(=O)c1cc(I)c(OCCN(CC)CC)c(I)c1 [AMIODARONE], the “Hepatotoxicity (granulomatous hepatitis)” value ([1]; Liver) was 2, the “Hepatotoxicity (steatosis)” value [2] was 4 and the “Hepatotoxicity (cirrhosis)” value [3] was 17. The “Hepatotoxicity (chronic liver disease)” value [4] was 8, the “Hepatotoxicity (association with vascular disease)” value [5] was 0 and the “Hepatotoxicity (malignant tumour)” value [6] was 0. The “Hepatotoxicity (comment)” value [7] was “RC/AJMALINE #S.REYE”, the “Hepatotoxicity (choleostasis)” value ([8]; Liver) was 6 and the “Hepatotoxicity (severe hepatitis)” value ([9]; Liver) was 14. For the same molecule, the “Hepatotoxicity (successful reintroduction)” value [10] was “yes”, the “Hepatotoxicity (acute)” value [11] was 34 and the “Hepatotoxicity (moderate)” value ([12]; Liver) was 55%. The “Hepatotoxicity (mechanism)” value [13] was “Allergic, Dose-dependant”, the “Hepatotoxicity (acute)” value ([14]; Liver) was 6% and the “Hepatotoxicity (benign tumour)” value [15] was 0. For the same molecule, the “Hepatotoxicity (moderate)” value [16] was 55, the “Hepatotoxicity (cytolytic)” value ([17]; Liver) was 20 and the “Hepatotoxicity (time to onset)” value [18] was 1 day - 10 years. The “Hepatotoxicity (animal toxicity known)” value [19] was “yes”.

With COc1cccc2c1C(=O)c1c(O)c3c(c(O)c1C2=O)C[C@@](O)(C(=O)CO)C[C@@H]3O[C@H]1C[C@H](N)[C@H](O)[C@H](C)O1 [DOXORUBICIN] the “Hepatotoxicity (granulomatous hepatitis)” value [1] was 0, the “Hepatotoxicity (steatosis)” value [2] was 0 and the “Hepatotoxicity (cirrhosis)” value [3] was 0. For the same molecule, the “Hepatotoxicity (chronic liver disease)” value [4] was 0, the “Hepatotoxicity (association with vascular disease)” value [5] was 5 and the “Hepatotoxicity (malignant tumour)” value [6] was 1. The “Hepatotoxicity (comment)” value [7] was “I/MERCAPTOPURINE/VINBLASTINE CHOLANGITE MVO REACTIVATION_HVB”, the “Hepatotoxicity (choleostasis)” value [8] was 3 and the “Hepatotoxicity (severe hepatitis)” value [9] was 4. For the same molecule, the “Hepatotoxicity (successful reintroduction)” value [10] was “yes”, the “Hepatotoxicity (acute)” value [11] was 7 and the “Hepatotoxicity (moderate)” value [12] was 84.6%. For the same molecule, the “Hepatotoxicity (mechanism)” value [13] was “Reactive metabolite, Dose-dependant”, the “Hepatotoxicity (benign tumour)” value [15] was 0 and the “Hepatotoxicity (moderate)” value [16] was 8. The “Hepatotoxicity (cytolytic)” value [17] was 4, the “Hepatotoxicity (time to onset)” value [18] was 1 week - 3 weeks and the “Hepatotoxicity (animal toxicity known)” value [19] was “yes”.

Reference: ChEMBL document CHEMBL3137667, “[Drug-induced liver injury; fourteenth updated edition of the bibliographic database of liver injuries and related drugs]” (Gastroenterol Clin Biol, 2004)
